Tested on: 186277-243-T-J2-PDC spheroids with HUVEC/MSC, viability
Assay: Anticancer human tumor 186277-243-T-J2-PDC patient-derived colon adenocarcinoma cell line growth inhibition [CLK]
Settings: for IC50: curve of first compound; for viability, T/C: stronger effect = lower value; active = viability on the fitted dose curve at most 10% of control; inactive = the rest
From the text: A high-throughput screen of multi-cell type tumor spheroids was designed to identify active combinations of […] and targeted small molecules. Complex spheroids include a stromal component modeled by human endothelial cells (HUVEC) and fibroblasts modeled by human mesenchymal stem cells (MSCs). The concentration ranges selected for each drug and investigational agent were based upon clinically achievable concentrations if the clinical Cmax of the agent was known.
Compounds. The drugs and investigational agents: cirtuvivint (SM08502; NSC835563), CC-671 (NSC850746), vemurafenib (NSC761431), tapotoclax (NSC804041), sotorasib (NSC818433), adagrasib (NSC831453), MRTX-1133 (NSC836407), BAY2416964 (NSC825713), copanlisib (NSC816437), inavolisib (NSC800729), abemaciclib (NSC768073), osimertinib (NSC779217), entinostat (NSC756642), eltanexor (KPT-8602, NSC794443), venetoclax (NSC766270), ceralasertib (NSC777638), bortezomib (NSC756655), olaparib (NSC753686), talazoparib (NSC767125), alisertib (NSC759677), peposertib (NSC802822), gemcitabine (NSC613327), 5-fluorouracil (NSC19893), SN-38 (NSC673596), oxaliplatin (NSC266046), paclitaxel (NSC125973), and doxorubicin (NSC123127), were obtained from the National Cancer Institute (NCI) Developmental Therapeutics Program Chemical Repository. The FDA-approved anticancer drug set is available from the Developmental Therapeutics Program at https://dtp.cancer.gov/organization/dscb/obtaining/available plates.htm. […] The stock solutions were prepared in dimethyl sulfoxide (DMSO, Sigma-Aldrich, St. Louis, MO, cat. D2650), except for the platinum complexes which were prepared in saline (Quality Biological, Gaithersburg, MD, cat. 114-055-101), at 800-fold the tested concentration and stored at -70 degrees C prior to their use. All drugs and investigational agents were tested over a range starting from a high concentration at or near the clinical Cmax and decreasing in half-log increments. If the clinical Cmax for an agent had not been determined, the highest concentration tested was 10 microM.
Cell Culture. All cells were maintained in an incubator at 37 degrees C and 5% CO2 with 95% humidity. The PDC lines were cultured according to standard operating procedures established by the NCI PDMR. Briefly, all PDCs were thawed and cultured in Matrigel-coated flasks prepared with a working solution of 1X Ham's F-12 nutrient mix, without supplementation (Invitrogen, Waltham, MA, cat. 11765054), 100 U/mL penicillin-streptomycin (Invitrogen, cat. 15140122), and 2.5% Matrigel (Corning Inc., Corning, NY, cat. 354248) for the first three passages. The 947758-054-R-J2-PDC line was cultured in 6B/Colon 1A media, which includes advanced DMEM/F-12 (Thermo Fisher Scientific, cat. 12634028), 10 mM HEPES (Thermo Fisher Scientific, cat. 15630080), 1X GlutaMAX supplement (Thermo Fisher Scientific, cat. 35050061), 0.1 mg/mL primocin (InvivoGen, cat. ant-pm-2), 10% defined fetal bovine serum, heat inactivated (HyClone Laboratories Inc., cat. SH30070.03HI), 1.25 mM N-Acetyl-L-cysteine (Sigma-Aldrich, cat. A9165), 10 mM nicotinamide (Sigma-Aldrich, cat. N0636), 1X B-27 supplement (Thermo Fisher Scientific, cat. 17504044), 1X N-2 supplement (Thermo Fisher Scientific, cat. 17502048), and 10 microM Y-27632 dihydrochloride (Tocris Bioscience, cat. 1254). The 876862-298-R-J1-PDC was cultured in 6E media, which includes all 6B/Colon 1A media components plus 50% L-WRN conditioned media (ATCC, cat. CRL-3276), 50 ng/mL recombinant human EGF recombinant protein (hEGF; Thermo Fisher Scientific, cat. PHG0311), 10 ng/mL recombinant human fibroblast growth factor 10 (hGFG-10; PeproTech, cat. 100-26), 1 ng/mL recombinant human fibroblast growth factor 2 (hFGF-2; PeproTech, cat. 100-18B), and 1 µM prostaglandin E2 (PGE2; Tocris, cat. 2296). The 227483-062-R1-J1-PDC line was cultured in Panc media, containing all 6E components except hFGF-2, with the addition of 500 nM SB-431542 (Selleckchem, cat. S1067) and 10 nM gastrin (Tocris, cat. 3006). […]
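Note: compound exposure lasted seven days before readout.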
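Throughout, for viability, T/C: 100% = DMSO vehicle control wells.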

C#Cc1c(F)ccc2cc(O)cc(-c3ncc4c(N5CC6CCC(C5)N6)nc(OCC56CCCN5CC(F)C6)nc4c3F)c12 (configuration not stated) + CN1CCN(c2cc(C(=O)Nc3cc4cc(-c5cnn(C)c5)ccc4cn3)ccn2)CC1
891 nM: IC50 (second compound 0.0316 µM)
active: viability, T/C (second compound 0.316 µM, first compound 0.316 µM) 6.4% | viability, T/C (second compound 0.316 µM, first compound 1 µM) 4.52% | viability, T/C (second compound 0.316 µM, first compound 3.16 µM) 4.02% | viability, T/C (second compound 0.316 µM, first compound 10 µM) 2.36% | viability, T/C (second compound 1 µM, first compound 0.0316 µM) 0.29% | viability, T/C (second compound 1 µM, first compound 0.1 µM) 0.77% | viability, T/C (second compound 1 µM, first compound 0.316 µM) 0.35% | viability, T/C (second compound 1 µM, first compound 1 µM) 0.39% | viability, T/C (second compound 1 µM, first compound 3.16 µM) 0.43% | viability, T/C (second compound 1 µM, first compound 10 µM) 0.19% | viability, T/C (second compound 3.16 µM, first compound 0.0316 µM) 1.1% | viability, T/C (second compound 3.16 µM, first compound 0.1 µM) 0.65% | viability, T/C (second compound 3.16 µM, first compound 0.316 µM) 0.64% | viability, T/C (second compound 3.16 µM, first compound 1 µM) 1.1% | viability, T/C (second compound 3.16 µM, first compound 3.16 µM) 1.04% | viability, T/C (second compound 3.16 µM, first compound 10 µM) 0.26% | viability, T/C (second compound 10 µM, first compound 0.0316 µM) 0.72% | viability, T/C (second compound 10 µM, first compound 0.1 µM) 0.54% | viability, T/C (second compound 10 µM, first compound 0.316 µM) 0.53% | viability, T/C (second compound 10 µM, first compound 1 µM) 0.64% | viability, T/C (second compound 10 µM, first compound 3.16 µM) 1.33% | viability, T/C (second compound 10 µM, first compound 10 µM) 0.27%
< 31.6 nM: IC50 (second compound 0.316 µM) | IC50 (second compound 1 µM) | IC50 (second compound 3.16 µM) | IC50 (second compound 10 µM)
188 nM: IC50 (second compound 0.1 µM)
inactive: viability, T/C (second compound 0.0316 µM, first compound 0.0316 µM) 110% | viability, T/C (second compound 0.0316 µM, first compound 0.1 µM) 88.2% | viability, T/C (second compound 0.0316 µM, first compound 0.316 µM) 76.2% | viability, T/C (second compound 0.0316 µM, first compound 1 µM) 44% | viability, T/C (second compound 0.0316 µM, first compound 3.16 µM) 29.4% | viability, T/C (second compound 0.0316 µM, first compound 10 µM) 15.2% | viability, T/C (second compound 0.1 µM, first compound 0.0316 µM) 73.7% | viability, T/C (second compound 0.1 µM, first compound 0.1 µM) 75.3% | viability, T/C (second compound 0.1 µM, first compound 0.316 µM) 29.7% | viability, T/C (second compound 0.1 µM, first compound 1 µM) 22.9% | viability, T/C (second compound 0.1 µM, first compound 3.16 µM) 16.3% | viability, T/C (second compound 0.1 µM, first compound 10 µM) 9.03% | viability, T/C (second compound 0.316 µM, first compound 0.0316 µM) 16% | viability, T/C (second compound 0.316 µM, first compound 0.1 µM) 11.7%
